Measurements from the supplement of paper PMC10307832.

Assays:
Experiment in all cases: relative viability (nuclei count vs DMSO), 5 days (fraction); higher = more cells survive
Tipifarnib + Palbociclib = compound: Cn1cncc1[C@@](N)(c1ccc(Cl)cc1)c1ccc2c(c1)c(-c1cccc(Cl)c1)cc(=O)n2C [Tipifarnib] + CC(=O)c1c(C)c2cnc(Nc3ccc(N4CCNCC4)cn3)nc2n(C2CCCC2)c1=O [Palbociclib] (partner 0.5 µM)
Outline: (§1)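 Relative viability equals treated-well nuclei counts divided by vehicle-well nuclei counts. Counts came from 4× images of lung cancer cell lines grown in 1536-well plates for 5 days after pin-tool dosing on the day after seeding. Dosing used one drug alone or a fixed anchor-drug dose plus five library-drug doses (not always all listed) in √10 steps, and values are medians of duplicate plates.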

Tipifarnib + Luminespib = compound: Cn1cncc1[C@@](N)(c1ccc(Cl)cc1)c1ccc2c(c1)c(-c1cccc(Cl)c1)cc(=O)n2C [Tipifarnib] + CCNC(=O)c1noc(-c2cc(C(C)C)c(O)cc2O)c1-c1ccc(CN2CCOCC2)cc1 [Luminespib] (partner 0.01 µM)
Outline: as §1

Tipifarnib + OSI-027 = compound: Cn1cncc1[C@@](N)(c1ccc(Cl)cc1)c1ccc2c(c1)c(-c1cccc(Cl)c1)cc(=O)n2C [Tipifarnib] + COc1cccc2cc(-c3nc([C@H]4CC[C@H](C(=O)O)CC4)n4ncnc(N)c34)[nH]c12 [OSI-027] (partner 0.5 µM)
Outline: as §1

Tipifarnib + Pictilisib = compound: Cn1cncc1[C@@](N)(c1ccc(Cl)cc1)c1ccc2c(c1)c(-c1cccc(Cl)c1)cc(=O)n2C [Tipifarnib] + CS(=O)(=O)N1CCN(Cc2cc3nc(-c4cccc5[nH]ncc45)nc(N4CCOCC4)c3s2)CC1 [Pictilisib] (partner 1 µM)
Outline: as §1

Row | Cell Line | relative viability (Tipifarnib + Palbociclib; first compound 0.01 µM) | relative viability (Tipifarnib + Palbociclib; first compound 0.03162 µM) | relative viability (Tipifarnib + Palbociclib; first compound 0.1 µM) | relative viability (Tipifarnib + Palbociclib; first compound 0.3162 µM) | relative viability (Tipifarnib + Palbociclib; first compound 1 µM) | relative viability (Tipifarnib + Luminespib; first compound 0.01 µM) | relative viability (Tipifarnib + Luminespib; first compound 0.03162 µM) | relative viability (Tipifarnib + Luminespib; first compound 0.1 µM) | relative viability (Tipifarnib + Luminespib; first compound 0.3162 µM) | relative viability (Tipifarnib + Luminespib; first compound 1 µM) | relative viability (Tipifarnib + OSI-027; first compound 0.01 µM) | relative viability (Tipifarnib + OSI-027; first compound 0.03162 µM) | relative viability (Tipifarnib + OSI-027; first compound 0.1 µM) | relative viability (Tipifarnib + OSI-027; first compound 0.3162 µM) | relative viability (Tipifarnib + OSI-027; first compound 1 µM) | relative viability (Tipifarnib + Pictilisib; first compound 0.01 µM) | relative viability (Tipifarnib + Pictilisib; first compound 0.03162 µM) | relative viability (Tipifarnib + Pictilisib; first compound 0.1 µM) | relative viability (Tipifarnib + Pictilisib; first compound 0.3162 µM) | relative viability (Tipifarnib + Pictilisib; first compound 1 µM)
1 | NCI-H2126 | 0.353 | 0.332 | 0.345 | 0.35 | 0.354 | 0.982 | 0.947 | 0.7 | 0.876 | 0.723 | 0.719 | 0.719 | 0.711 | 0.614 | 0.435 | 0.491 | 0.492 | 0.518 | 0.478 | 0.391
2 | HCC-44 | 0.952 | 0.921 | 0.945 | 0.92 | 0.926 | 0.98 | 0.93 | 0.899 | 0.839 | 0.855 | 0.736 | 0.423 | 0.383 | 0.329 | 0.289 | 0.667 | 0.619 | 0.451 | 0.262 | 0.363
3 | NCI-H460 | 0.178 | 0.187 | 0.096 | 0.0611 | 0.0359 | 0.0293 | 0.0319 | 0.0244 | 0.0236 | 0.0186 | 0.669 | 0.626 | 0.257 | 0.209 | 0.0157 | 0.42 | 0.396 | 0.379 | 0.275 | 0.126
4 | SK-LU-1 | 0.398 | 0.353 | 0.393 | 0.357 | 0.335 | 0.252 | 0.212 | 0.208 | 0.236 | 0.193 | 0.324 | 0.286 | 0.293 | 0.222 | 0.181 | 0.574 | 0.568 | 0.424 | 0.378 | 0.299
5 | NCI-H322M | 0.521 | 0.548 | 0.515 | 0.459 | 0.508 | 0.854 | 0.85 | 0.676 | 0.665 | 0.554 | 0.5 | 0.492 | 0.513 | 0.415 | 0.445 | 0.533 | 0.543 | 0.47 | 0.464 | 0.481
6 | EKVX | 0.396 | 0.362 | 0.35 | 0.281 | 0.284 | 0.95 | 0.856 | 0.41 | 0.776 | 0.496 | 0.728 | 0.7 | 0.699 | 0.516 | 0.39 | 0.477 | 0.4 | 0.455 | 0.339 | 0.355
7 | NCI-H1734 | 0.353 | 0.327 | 0.323 | 0.298 | 0.261 | 0.198 | 0.147 | 0.171 | 0.168 | 0.164 | 0.581 | 0.444 | 0.463 | 0.316 | 0.365 | 0.486 | 0.356 | 0.38 | 0.331 | 0.346
8 | ABC-1 | 0.733 | 0.689 | 0.694 | 0.639 | 0.604 | 0.914 | – | 0.321 | 0.347 | 0.278 | 0.554 | – | 0.414 | 0.32 | 0.267 | 0.808 | – | 0.623 | 0.583 | 0.492
9 | NCI-H520 | 0.181 | 0.238 | 0.254 | 0.162 | 0.2 | 0.235 | 0.233 | 0.207 | 0.207 | 0.23 | 0.214 | 0.262 | 0.187 | 0.19 | 0.199 | 0.283 | 0.227 | 0.243 | 0.275 | 0.166
10 | EPLC-272H | 0.358 | 0.265 | 0.328 | 0.298 | 0.263 | 0.196 | 0.267 | 0.233 | 0.378 | 0.173 | 0.276 | 0.229 | 0.247 | 0.267 | 0.212 | 0.339 | 0.265 | 0.392 | 0.283 | 0.186
11 | UMC-11 | 0.342 | 0.306 | 0.295 | 0.273 | 0.262 | 0.99 | 0.845 | 0.711 | 0.665 | 0.621 | 0.432 | 0.359 | 0.348 | 0.301 | 0.343 | 0.676 | 0.511 | 0.495 | 0.445 | 0.31
12 | NCI-H1792 | 0.642 | 0.621 | 0.522 | 0.512 | 0.479 | 0.505 | 0.329 | 0.379 | 0.268 | 0.262 | 0.9 | 0.76 | 0.548 | 0.32 | 0.357 | 0.237 | 0.235 | 0.152 | 0.117 | 0.131
13 | NCI-H1993 | 0.604 | 0.531 | 0.431 | 0.463 | 0.413 | 0.697 | 0.644 | 0.57 | 0.504 | 0.481 | 0.469 | 0.613 | 0.531 | 0.644 | 0.604 | 0.686 | 0.812 | 0.861 | 0.888 | 0.913
14 | NCI-H1793 | 0.29 | 0.258 | 0.228 | 0.213 | 0.233 | 0.23 | 0.173 | 0.196 | 0.134 | 0.138 | 0.254 | 0.326 | 0.204 | 0.215 | 0.216 | 0.446 | 0.256 | 0.307 | 0.247 | 0.265
15 | NCI-H1395 | 0.646 | 0.617 | 0.591 | 0.503 | 0.5 | 0.776 | 0.72 | 0.711 | 0.446 | 0.452 | 0.622 | 0.545 | 0.494 | 0.517 | 0.413 | 0.578 | 0.547 | 0.538 | 0.47 | 0.521
16 | HCC-827 | 0.455 | 0.495 | 0.472 | 0.349 | 0.439 | 1.06 | 0.471 | 0.279 | 0.365 | 0.256 | 0.901 | 0.809 | 0.687 | 0.435 | 0.388 | 0.955 | 0.905 | 0.775 | 0.653 | 0.675
17 | ChaGo-K-1 | 0.996 | 0.937 | 0.932 | 0.885 | 0.758 | 0.669 | 0.558 | 0.454 | 0.505 | 0.389 | 0.483 | 0.548 | 0.602 | 0.442 | 0.332 | 0.694 | 0.8 | 0.71 | 0.618 | 0.542
18 | NCI-H2228 | 0.971 | 0.599 | 0.353 | 0.551 | 0.29 | 0.126 | 0.126 | 0.165 | 0.145 | 0.157 | 0.502 | 0.427 | 0.363 | 0.214 | 0.168 | 0.369 | 0.388 | 0.325 | 0.202 | 0.243
19 | NCI-H2170 | 0.362 | 0.377 | 0.305 | 0.246 | 0.27 | 0.406 | 0.555 | 0.619 | 0.282 | 0.691 | 0.668 | 0.678 | 0.583 | 0.55 | 0.353 | 0.317 | 0.291 | 0.295 | 0.278 | 0.222
20 | EMC-BAC-2 | 0.501 | 0.469 | 0.494 | 0.463 | 0.465 | 1.27 | 0.907 | 0.974 | 0.847 | 0.752 | 0.365 | 0.3 | 0.364 | 0.3 | 0.266 | 0.573 | 0.509 | 0.467 | 0.525 | 0.366
21 | NCI-H23 | 0.577 | 0.397 | 0.405 | 0.35 | 0.341 | 0.243 | 0.242 | 0.223 | 0.199 | 0.24 | 0.583 | 0.384 | 0.342 | 0.29 | 0.26 | 0.469 | 0.448 | 0.312 | 0.268 | 0.232
22 | RERF-LC-KJ | 1.22 | 1.12 | 0.957 | 0.813 | 0.784 | 1.2 | 0.924 | 1.07 | 0.605 | 0.654 | 0.529 | 0.427 | 0.392 | 0.41 | 0.309 | 0.551 | 0.501 | 0.561 | 0.347 | 0.328
23 | NCI-H358 | 0.152 | 0.127 | 0.118 | 0.129 | 0.144 | 0.246 | 0.297 | 0.212 | 0.212 | 0.214 | 0.803 | 0.788 | 0.429 | 0.385 | 0.178 | 0.387 | 0.367 | 0.362 | 0.347 | 0.268
24 | LC-2-ad | 0.464 | 0.439 | 0.442 | 0.336 | 0.38 | 1.02 | 0.897 | 0.767 | 0.753 | 0.717 | 0.765 | 0.755 | 0.522 | 0.499 | 0.438 | 0.515 | 0.371 | 0.255 | 0.325 | 0.191
25 | HCC-15 | 0.694 | 0.653 | 0.566 | 0.417 | 0.405 | 0.332 | 0.306 | 0.245 | 0.302 | 0.357 | 0.555 | 0.467 | 0.293 | 0.255 | 0.191 | 0.629 | 0.547 | 0.556 | 0.426 | 0.224
26 | NCI-H2405 | 0.562 | 0.517 | 0.525 | 0.492 | 0.517 | 0.71 | 0.584 | 0.525 | 0.606 | 0.527 | 0.673 | 0.641 | 0.629 | 0.599 | 0.474 | 0.406 | 0.412 | 0.351 | 0.405 | 0.404
27 | LXF-289 | 0.615 | 0.586 | 0.591 | 0.549 | 0.565 | 0.651 | 0.68 | 0.701 | 0.554 | 0.444 | 0.951 | 0.699 | 0.709 | 0.6 | 0.293 | 0.86 | 0.793 | 0.735 | 0.699 | 0.464
